{
  "source": "patent US9237747B2",
  "about": "“Herbicidal compositions comprising 4-amino-3-chloro-5-fluoro-6-(4-chloro-2-fluoro-3-methoxyphenyl) pyridine-2-carboxylic acid or a derivative thereof and insecticides” (priority 2013, dated 2016)",
  "test_system": "LEFPA",
  "assay": "Postemergence foliar-applied weed control, direct-seeded rice (greenhouse)",
  "format": "in vivo, Leptochloa panicoides",
  "excerpt": "Seeds or nutlets of the desired test plant species were planted in a soil matrix prepared by mixing a loam or sandy loam soil (e.g., 28.6 percent silt, 18.8 percent clay, and 52.6 percent sand, with a pH of about 5.8 and an organic matter content of about 1.8 percent) and calcareous grit in an 80 to 20 ratio. The soil matrix was contained in plastic pots with a volume of 1 quart and a surface area of 83.6 square centimeters (cm^2). When required to ensure good germination and healthy plants, a fungicide treatment and/or other chemical or physical treatment was applied. The plants were grown for 8-22 days in a greenhouse with an approximate 14 hour (h) photoperiod which was maintained at about 29° C. during the day and 26° C. during the night. Nutrients (Peters Excel® 15-5-15 5-Ca 2-Mg and iron chelate) were applied in the irrigation solution as needed and water was added on a regular basis. Supplemental lighting was provided with overhead metal halide 1000-Watt lamps as necessary. The plants were employed for testing when they reached the first through fourth true leaf stage.\nTreatments consisted of the acid or esters of 4-amino-3-chloro-6-(4-chloro-2-fluoro-3-methoxyphenyl)-5-fluoropyridine-2-carboxylic acid (Compound A), each formulated as an SC (suspension concentrate), and various insecticidal components alone and in combination. Forms of compound A were applied on an acid equivalent basis.\nTreatment requirements were calculated based upon the rates being tested, the concentration of active ingredient or acid equivalent in the formulation, and a 12 milliliter (mL) application volume at a rate of 187 liters per hectare (L/ha).\nFor treatments comprised of formulated compounds, measured amounts of compounds were placed individually in 25 mL glass vials and diluted in a volume of 1.25% volume per volume (v/v) Agri-Dex® crop oil concentrate to obtain 12× stock solutions. […] Application solutions were prepared by adding an appropriate amount of each stock solution (e.g., 1 mL) and diluted to the appropriate final concentrations with the addition of […] of an aqueous mixture of 1.25% (v/v) crop oil concentrate so that the final spray solutions contained 1.25+/−0.05% (v/v) crop oil concentrate.\nAs required, additional water and/or 97:3 v/v acetone/DMSO was added to individual application solutions so that the final acetone and DMSO concentrations of the application solutions being compared were 8.1% and 0.25%, respectively.\nAll stock solutions and applications solutions were visually inspected for compound compatibility prior to application. Spray solutions were applied to the plant material with an overhead Mandel track sprayer equipped with 8002E nozzles calibrated to deliver 187 L/ha over an application area of 0.503 square meters (m^2) at a spray height of 18 to 20 inches (46 to 50 cm) above average plant canopy height. Control plants were sprayed in the same manner with the solvent blank.\nThe treated plants and control plants were placed in a greenhouse as described above and watered by sub-irrigation to prevent wash-off of the test compounds. After approximately 3 weeks, the condition of the test plants as compared to that of the untreated plants was determined visually and scored on a scale of 0 to 100 percent where 0 corresponds to no injury or growth inhibition and 100 corresponds to complete kill.\nColby's equation was used to determine the herbicidal effects expected from the mixtures (Colby, S. R. Calculation of the synergistic and antagonistic response of herbicide combinations. Weeds 1967, 15, 20-22.).\nThe following equation was used to calculate the expected activity of mixtures containing two active ingredients, A and B: Expected=A+B−(A×B/100)",
  "data": [
    {"smiles": "COc1c(Cl)ccc(-c2nc(C(=O)OCc3ccccc3)c(Cl)c(N)c2F)c1F", "note": "[Compound A Benzyl Ester]", "values": [
      {"measurement": "Visual Weed Control (%) - 22 DAA LEFPA Obs", "setting": "8 g ae/ha alone", "value": 5, "unit": "%"},
      {"measurement": "Visual Weed Control (%) - 22 DAA LEFPA Obs", "setting": "16 g ae/ha alone", "value": 0, "unit": "%"},
      {"measurement": "Visual Weed Control (%) - 22 DAA LEFPA Obs", "setting": "32 g ae/ha alone", "value": 38, "unit": "%"}
    ]}
  ]
}
